# Experimental data reported in ChEMBL document CHEMBL3414511, “Synthesis of a novel class of substituted benzothiophene or benzofuran derivatives as BMP-2 up-regulators and evaluation of the BMP-2-up-regulating effects in vitro and the effects on glucocorticoid-induced osteoporosis in rats” (Eur J Med Chem, 2015).
# Assay: Upregulation of BMP-2 expression in mouse MC3T3-E1 cells at 4 uM after 24 hrs by luciferase reporter gene assay relative to control
# Assay type: functional, cell-based
row,Structure (SMILES),Activity
1,COc1ccc2cc(C(=O)C[S+](C)[O-])oc2c1 (stereo unspecified),7.7%
2,CCOC(=O)c1ccc2cc(C(=O)/C=C/c3ccccc3Cl)sc2c1,39.1%
3,CCOC(=O)c1ccc2cc(C(=O)/C=C/c3ccc(OC)c(OC)c3)sc2c1,0.7%
4,COC(=O)c1ccc2sc(C(C)O)cc2c1 (stereo unspecified),56.9%
5,C[S+]([O-])CC(O)c1cc2ccccc2s1 (stereo unspecified),-3.6%
6,COc1ccc2oc(C(=O)C[S+](C)[O-])cc2c1 (stereo unspecified),2.1%
7,CCOC(=O)c1cc2ccc(N(CC)CC)cc2o1,44.6%
8,COc1ccc2oc(C(O)C[S+](C)[O-])cc2c1 (stereo unspecified),16.9%
9,CCN(CC)c1ccc2cc(C(=O)C[S+](C)[O-])oc2c1 (stereo unspecified),10%
10,C[S+]([O-])CC(O)c1cc2cc3c(cc2s1)OCO3 (stereo unspecified),-9.3%
11,COc1ccc2oc(C(=O)CS(C)(=O)=O)cc2c1,12.9%
